One may read the EC50 as the concentration giving half of the maximal effect. The low end stands for higher potency in that assay, the high end for lower potency in that assay. Usually pEC50 stands for the EC50 on a negative log10 scale, so that one unit is a factor of ten. A higher pEC50 goes with a low EC50.

pEC50: −log10 of the molar value.

This experiment can be described thus: RSV-A Assay: The description is Japanese.
In the case of `O=C1Nc2ccccc2C(c2ccccc2)=N[C@@H]1Nc1nnc(-c2ncc(C(F)(F)F)cc2N[C@H]2CCC[C@H]2O)o1`, the concentration giving a half-maximal response (EC50) entry was “in the range around 600 nM”. As for `N#Cc1ccc(-c2nnc(N[C@H]3N=C(c4ccccc4)c4ccccc4NC3=O)o2)c(-c2ccsc2)c1`, the negative logarithm of the EC50 (pEC50) is below 6.10. On to `N#CC1CCN(c2ncccc2-c2nnc(NC3N=C(c4ccccc4)c4ccccc4NC3=O)o2)CC1` (stereo not given), for which the pEC50 is below 6.10. On to `CN1CCN(c2ncccc2-c2nnc(NC3N=C(c4ccccc4)c4ccccc4NC3=O)o2)CC1` (stereo not given), for which the pEC50 is below 6.10.

On to `O=C1Nc2ccccc2C(c2ccccc2)=N[C@@H]1Nc1nnc(-c2nc(C(F)(F)F)sc2NCC2COC2)o1`, for which the EC50 entry is “in the range around 600 nM”. In turn, `CCCc1nnc(NC2N=C(c3ccccc3)c3ccccc3NC2=O)o1` (stereo not given) gave a pEC50 below 6.10.

In turn, `Cc1noc(C)c1-c1cc(C#N)ccc1-c1nnc(N[C@H]2N=C(c3ccccc3)c3ccccc3NC2=O)o1` gave a pEC50 below 6.10. On the same count and under the same terms, in the case of `O=C1Nc2ccccc2C(c2ccccc2)=NC1Nc1nnc(-c2cccnc2N2C[C@@H]3C[C@H]2CO3)o1` (stereo not given in full) it was below 6.10; in that of `O=C1Nc2ccccc2C(c2ccccc2)=N[C@@H]1Nc1nnc(-c2oc3ccccc3c2N2CCOCC2)o1`, above 6.40; in that of `COCCn1cc(-c2nnc(N[C@H]3N=C(c4ccccc4)c4ccccc4NC3=O)o2)c(N2CCOCC2)n1`, above 6.40. As for `O=C1Nc2ccccc2C(c2ccccc2)=N[C@@H]1Nc1nnc(-c2ncc(C(F)(F)F)cc2N[C@H]2CCOC2)o1`, the pEC50 is below 6.10.

Turning to `O=C1Nc2ccccc2C(c2ccccc2)=N[C@@H]1Nc1nnc(-c2ncc(C(F)(F)F)cc2N2CCC(O)CC2)o1`, the pEC50 is below 6.10. Molecule `O=C1Nc2ccccc2C(c2ccccc2)=NC1Nc1nnc(-c2cccnn2)o1` (stereo not given) had a negative logarithm of the EC50 (pEC50) below 6.10. `N#Cc1cc(N2CCOCC2)c(-c2nnc(N[C@H]3N=C(c4ccccc4)c4ccccc4NC3=O)o2)s1` gave a pEC50 above 6.40.

Take `O=C1Nc2ccccc2C(c2ccccc2)=N[C@@H]1Nc1nnc(-c2cn(CC3CC3)nc2N2CCOCC2)o1`: the EC50 is < 400 nM and in the range around 600 nM.

As for `CS(=O)(=O)Cc1nnc(NC2N=C(c3ccccc3)c3ccccc3NC2=O)o1` (stereo not given), the pEC50 is below 6.10. `Cn1ccnc1-c1nnc(NC2N=C(c3ccccc3)c3ccccc3NC2=O)o1` (stereo not given) showed a pEC50 below 6.10.

Take `COC(=O)c1nc(-c2ccccn2)sc1Cl`: the pEC50 was above 6.40. For the molecule `CCOC(=O)c1ncc(C(F)F)cc1N1CCOCC1`, the pEC50 is above 6.40.

On to `O=C1Nc2ccccc2C(c2ccccc2)=N[C@@H]1Nc1nnc(-c2ncc(C(F)(F)F)cc2N2CCOC3CC32)o1` (stereo not given in full), for which the pEC50 was above 6.40. In the case of `O=C1Nc2ccccc2C(c2ccccc2)=NC1Nc1nnc(-c2ccc3nc[nH]c3c2)o1` (stereo not given), the EC50 was > 800 nM and in the range around 600 nM. `O=C1Nc2ccccc2C(c2ccccc2)=NC1Nc1nnc([C@@H]2CCCO2)o1` (stereo not given in full) showed a pEC50 below 6.10. Turning to `O=C1Nc2ccccc2C(c2ccccc2)=N[C@@H]1Nc1nnc(-c2nc(C(F)(F)F)sc2N2CCO[C@H]3C[C@H]32)o1`, the pEC50 was above 6.40. `O=C1Nc2ccccc2C(c2ccccc2)=NC1Nc1nnc(-c2ccc(F)cn2)o1` (stereo not given) had a pEC50 below 6.10. `C[C@@H]1COCCN1c1cc(C(F)(F)F)cnc1-c1nnc(N[C@H]2N=C(c3ccccc3)c3ccccc3NC2=O)o1` gave a pEC50 above 6.40. Take `O=C1Nc2ccccc2C(c2ccccc2)=N[C@@H]1Nc1nnc(-c2nc(C(F)(F)F)sc2N2CCOCC2)o1`: the pEC50 was above 6.40.

As to `Cc1nc(-c2nnc(N[C@H]3N=C(c4ccccc4)c4ccccc4NC3=O)o2)cs1`, the pEC50 was below 6.10. For the molecule `COCCCc1sc(C)nc1-c1nnc(N[C@H]2N=C(c3ccccc3)c3ccccc3NC2=O)o1`, the pEC50 was below 6.10. As for `O=C1Nc2ccccc2C(c2ccccc2)=NC1Nc1nnc(-c2cccnc2N2C3CCC2COC3)o1` (stereo not given), the negative logarithm of the EC50 (pEC50) was below 6.10. On to `COC[C@@H](C)Nc1sc(C(F)(F)F)nc1-c1nnc(N[C@H]2N=C(c3ccccc3)c3ccccc3NC2=O)o1`, for which the EC50 result is “in the range around 600 nM”.

The molecule `O=C1Nc2ccccc2C(c2ccccc2)=NC1Nc1nnc(-c2ccc(-n3ccc(C(F)(F)F)n3)cc2)o1` (stereo not given) showed a pEC50 below 6.10. Molecule `CC1(Nc2nnc(-c3ccc(F)cc3)o2)N=C(c2ccccc2)c2ccccc2NC1=O` (stereo not given) had a pEC50 below 6.10. Take `CC(C)n1cc(-c2nnc(N[C@H]3N=C(c4ccccc4)c4ccccc4NC3=O)o2)c(N2CCOCC2)n1`: the pEC50 is above 6.40. Consider `O=C1Nc2ccccc2C(c2ccccc2)=N[C@@H]1Nc1nnc(-c2ncc(C(F)(F)F)cc2NC2COC2)o1`, for which the pEC50 is above 6.40. Molecule `O=C1Nc2c(Cl)cccc2C(c2ccccc2)=NC1Nc1nnc(-c2ccccc2N2CCOCC2)o1` (stereo not given) had a pEC50 below 6.10. In turn, `CCOC(=O)c1ccnc2ccc(COC)cc12` had a pEC50 below 6.10. On to `N#Cc1ccc(N2CCOCC2)c(-c2nnc(N[C@H]3N=C(c4ccccc4)c4ccccc4NC3=O)o2)n1`, for which the pEC50 was above 6.40. Same read-out and setting: to `N#Cc1cccc(C2=NC(Nc3nnc(-c4ccc(F)cc4)o3)C(=O)Nc3ccccc32)c1` (stereo not given) belongs below 6.10; to `O=C1Nc2ccccc2C(c2ccccc2)=NC1Nc1cnc(-c2ccc(F)cc2)cn1` (stereo not given), below 6.10; to `O=C(O)c1ccncc1N1CCCCC1`, below 6.10.

`O=C1Nc2ccccc2C(c2ccccc2)=N[C@@H]1Nc1nnc(-c2nc(-c3ccc(F)cc3)sc2N2CCOCC2)o1` gave a pEC50 above 6.40. On to `COC1C2CNCC21` (stereo not given), for which the pEC50 was below 6.10.

Consider `O=C1Nc2ccccc2C(c2ccccc2)=NC1Nc1nnc(-c2ccc(=O)[nH]c2)o1` (stereo not given), for which the pEC50 was below 6.10. `O=C1Nc2ccccc2C(c2ccccc2)=NC1Nc1nnc(CC(F)(F)F)o1` (stereo not given) showed a negative-log EC50 (pEC50) below 6.10. For `CCc1nc(N2CCOCC2)c(-c2nnc(N[C@H]3N=C(c4ccccc4)c4ccccc4NC3=O)o2)cc1C#N`, the pEC50 is above 6.40. As to `CN1CCN(c2cc(C(F)(F)F)cnc2-c2nnc(N[C@H]3N=C(c4ccccc4)c4ccccc4NC3=O)o2)CC1`, the EC50 result was “in the range around 600 nM”. `O=C1Nc2ccccc2C(c2ccccc2)=NC1Nc1nnc(-c2nc(Br)sc2N2CCOCC2)o1` (stereo not given): the negative-log EC50 (pEC50) is above 6.40. The molecule `Cc1cc(-c2nnc(NC3N=C(c4ccccc4)c4ccccc4NC3=O)o2)on1` (stereo not given) had a pEC50 below 6.10. `O=C1Nc2ccccc2C(c2ccccc2)=N[C@@H]1Nc1nnc(-c2nc3ccccc3cc2N2CCOCC2)o1` showed a pEC50 above 6.40. `CN(CC(C)(C)O)c1cc(C(F)(F)F)cnc1-c1nnc(N[C@H]2N=C(c3ccccc3)c3ccccc3NC2=O)o1` had a pEC50 below 6.10. Consider `O=C1Nc2ccccc2C(c2ccccc2)=NC1Nc1ccc(-c2ccccc2N2CCOCC2)nn1` (stereo not given), for which the negative-log EC50 (pEC50) is below 6.10. Regarding `O=C1Nc2ccccc2C(c2ccccc2)=N[C@@H]1Nc1nnc(-c2nc(-c3cccnc3)sc2N2CCOCC2)o1`, the pEC50 is above 6.40. On to `COc1ccc(-c2nnc(NC3N=C(c4ccccc4)c4ccccc4NC3=O)o2)nc1Cl` (stereo not given), for which the pEC50 was below 6.10.

The molecule `O=C1Nc2ccccc2C(c2ccccc2)=N[C@H]1Nc1nnc(-c2nc(C(F)(F)F)sc2N2CCO[C@@H]3C[C@@H]32)o1` gave a pEC50 below 6.10.

Consider `O=C1Nc2ccccc2C(c2ccccc2)=N[C@@H]1Nc1nnc(-c2nc(-c3ccccc3F)sc2N2CCOCC2)o1`, for which the pEC50 is above 6.40.

The molecule `COC(=O)c1ccc(Cl)nc1N1CCOCC1` showed a pEC50 above 6.40. As to `O=C1Nc2ccccc2C(c2ccccc2)=NC1Nc1nnc(Cc2ccccc2)o1` (stereo not given), the pEC50 was below 6.10. As for `C[C@H]1COCCN1c1ncccc1-c1nnc(NC2N=C(c3ccccc3)c3ccccc3NC2=O)o1` (stereo not given in full), the pEC50 was below 6.10.

Turning to `CS(=O)(=O)c1cnc(-c2nnc(N[C@H]3N=C(c4ccccc4)c4ccccc4NC3=O)o2)c(N2CCOCC2)c1`, the pEC50 was below 6.10. For the molecule `O=C1Nc2ccccc2C(c2ccccc2)=N[C@@H]1Nc1nnc(-c2cn(CC(F)(F)F)nc2N2CCOCC2)o1`, the pEC50 was below 6.10. Consider `O=C1Nc2ccccc2C(c2ccccc2)=N[C@@H]1Nc1nnc(-c2cnn(-c3ccccc3)c2)o1`, for which the EC50 entry is “in the range around 600 nM”. With `O=C1Nc2ccccc2C(c2ccccc2)=NC1Nc1nnc(-c2c(F)cc(N3CCOCC3)cc2F)o1` (stereo not given), the negative logarithm of the EC50 (pEC50) was below 6.10. Same read-out and setting: in the case of `CC(C)c1nnc(NC2N=C(c3ccccc3)c3ccccc3NC2=O)o1` (stereo not given) it was below 6.10.

With `O=C1Nc2ccccc2C(c2ccccc2)=NC1Nc1nnc(-c2ccc(C(F)(F)F)cc2N2CCOCC2)o1` (stereo not given), the pEC50 is above 6.40.

The molecule `O=C1Nc2ccccc2C(c2ccccc2)=NC1Nc1nnc(-c2cccnc2N2CCC(F)CC2)o1` (stereo not given) showed a negative logarithm of the EC50 (pEC50) below 6.10. The molecule `O=C1Nc2ccccc2C(c2ccccc2)=N[C@@H]1Nc1nnc(-c2cccnc2N2CCn3ncnc3C2)o1` showed a pEC50 below 6.10. On the same count and under the same terms, in the case of `O=C1Nc2ccccc2C(c2ccccc2)=NC1Nc1nnc(-c2cccnc2N2C[C@H]3C[C@@H]2CO3)o1` (stereo not given in full) it was below 6.10. `O=C1Nc2ccccc2C(c2ccccc2)=N[C@H]1Nc1nnc(-c2nc(C(F)(F)F)sc2N2CCO[C@H]3C[C@H]32)o1`: the pEC50 is below 6.10.

For `COc1ccc(-c2nnc(N[C@H]3N=C(c4ccccc4)c4ccccc4NC3=O)o2)c(N2CCOCC2)n1`, the pEC50 is above 6.40. `Cn1ncc(-c2nnc(N[C@H]3N=C(c4ccccc4)c4ccccc4NC3=O)o2)c1N1CCOCC1` had a pEC50 below 6.10. Consider `O=C1Nc2ccccc2C(c2ccccc2)=NC1Nc1nnc([C@@H]2COCCN2)o1` (stereo not given in full), for which the pEC50 was below 6.10. `N#Cc1ccc(-c2nnc(NC3N=C(c4ccccc4)c4ccccc4NC3=O)o2)c(N2CCOCC2)c1` (stereo not given) had a pEC50 above 6.40.

Regarding `O=C1Nc2ccccc2C(c2ccccc2)=N[C@@H]1Nc1nnc(-c2cn(-c3ccc(C(F)(F)F)nc3)nc2N2CCOCC2)o1`, the EC50 was < 400 nM and in the range around 600 nM. For the molecule `O=C1Nc2ccccc2C(c2ccccc2)=NC1Nc1nnc(-c2ccncc2)s1` (stereo not given), the pEC50 is below 6.10.

`CCOC(=O)c1cn(CC)nc1N1CCOCC1`: the negative logarithm of the EC50 (pEC50) was above 6.40. Still for that read-out and setting: in the case of `O=C1Nc2ccccc2C(c2ccccc2)=NC1Nc1nnc(-c2cccc(C(F)(F)F)c2)o1` (stereo not given) it was below 6.10; in that of `O=C1Nc2ccccc2C(c2ccccc2)=N[C@@H]1Nc1nnc(-c2ccnn2-c2ccccc2)o1`, below 6.10; in that of `O=C1Nc2ccccc2C(c2ccccc2)=NC1Nc1nnc(-c2ccc(F)cc2N2CCOCC2)o1` (stereo not given), above 6.40. In turn, `COc1cc(-c2nnc(NC3N=C(c4ccccc4)c4ccccc4NC3=O)o2)ccc1F` (stereo not given) had a pEC50 above 6.40. `O=C1Nc2ccccc2C(c2ccccc2)=NC1Nc1ncc2ccccc2n1` (stereo not given) showed a pEC50 below 6.10.

Values taken from ChEMBL document CHEMBL5729210, “Benzodiazepine derivatives as RSV inhibitors” (2022).
